We go through five molecules from publication PMC6273342, “Cytotoxic Alkaloids from the Stem of Xylopia laevigata” (Molecules, 2016).

Read-outs that look alike come from different tables or passages of the source. Some results are limits rather than exact numbers.

The term IC50 denotes the midpoint of a concentration-inhibition curve.

The test system of series [1] is HepG2 cells. In words: Morphological analysis with May-Grünwald-Giemsa staining, HepG2. To be noted: HepG2, 24 h; lanuginosine 10 and 20 μg/mL, (+)-xylopine 5 and 10 μg/mL. It is filed as cell-based, human. As to the method: (§1) The following set of experiments was performed to investigate the mechanisms involved in the cytotoxic action of the alkaloids lanuginosine and (+)-xylopine. In all experiments, 2 mL of a HepG2 cell solution (0.7 × 10^5 cells/mL) was placed in 24-well plates and incubated overnight to allow the cells to adhere to the plate surface. The cells were then treated for 24 h with the alkaloids lanuginosine (10 and 20 μg/mL) and (+)-xylopine (5 and 10 μg/mL). The negative control was treated with the vehicle (0.2% DMSO) used for diluting the alkaloids. […] Cell viability was assessed for all experiments using a Trypan Blue exclusion assay.
To evaluate alterations in morphology, cells were cultured under a coverslip, fixed with methanol for 30 s and stained with May-Grünwald-Giemsa stain. Morphological changes were examined by light microscopy (Olympus BX41, Tokyo, Japan) using Image-Pro software (Media Cybernetics, Rockville, MD, USA).

The next series deals with B16-F10 (mouse melanoma). In words: Alamar Blue cytotoxicity assay, B16-F10. Particulars: 72 h incubation. It counts as cell-based. From the text:
(§2) Camargo, São Paulo, Brazil.
Background: The colour change of resazurin is a common sign of viable cells or microbes.

Series [2] concerns HepG2 cells. In words: Annexin assay (phosphatidylserine externalization, flow cytometry), HepG2. It is filed as cell-based, human. Particulars: HepG2, 24 h; for phosphatidylserine exposure: p < 0.05, without affecting the cell membrane integrity. As to the method: as §1
Phosphatidylserine externalization was analyzed by flow cytometry. A FITC annexin V apoptosis detection kit (BD Biosciences, San Jose, CA, USA) was used to determine cell viability (viable, early apoptotic, late apoptotic and necrotic cells). Cells were washed twice with saline and then resuspended in 100 μL of binding buffer with 5 μL of propidium iodide and 5 μL of FITC annexin V. The cells were gently mixed on a vortexer and incubated for 15 min at room temperature (20–25 °C) in the dark. Afterwards, 400 μL of binding buffer was added to each tube and the cells were analyzed by flow cytometry on a BD LSRFortessa cytometer using BD FACSDiva Software (BD Biosciences) and Flowjo Software 10 (Flowjo LCC, Ashland, OR, USA). Ten thousand events were evaluated per experiment and cellular debris was omitted from the analysis.
(In general: In flow cytometry, cells or beads pass a laser one at a time.)

For series [3], the system named is HepG2 (human hepatocellular carcinoma). In words: Alamar Blue cytotoxicity assay, HepG2. It is filed as cell-based. To be noted: 72 h incubation.
Source text: as §2

In series [4] the test system is HepG2 cells. In words: Internucleosomal DNA fragmentation and cell cycle distribution (flow cytometry, propidium iodide), HepG2. It counts as cell-based, human. Particulars: HepG2, 24 h; for Cell Cycle Phases (%) S: NC 16.11 ± 1.89; for Cell Cycle Phases (%) G2/M: NC 19.93 ± 6.12; for Cell Cycle Phases (%) G1: NC 51.50 ± 4.02. As to the method: as §1
Cells were harvested in a lysis solution containing 0.1% triton X-100 (Sigma Chemical Co., St. Louis, MO, USA), 2 µg/mL propidium iodide (Sigma Chemical Co.), 0.1% sodium citrate and 100 µg/mL RNAse (Sigma Chemical Co.). Cell fluorescence was determined by flow cytometry on a BD LSRFortessa cytometer using BD FACSDiva Software (BD Biosciences) and Flowjo Software 10. Ten thousand events were evaluated per experiment and cellular debris was omitted from the analysis.

Series [5] concerns tumor cell lines B16-F10, HepG2, K562 and HL-60. In words: Alamar Blue cytotoxicity assay, summary over the tumor cell lines tested. Particulars: 72 h, read-out: IC50 in at least one of the tumor cell lines tested.
Experimental: (§3) B16-F10, HepG2, K562 and HL-60 tumor cell lines were kindly donated by Hospital A.C. […] Cells were maintained in RPMI 1640 medium (Gibco-BRL, Gaithersburg, MD, USA) with 10% fetal bovine serum (Cultilab, Campinas, Brazil), 2 mM L-glutamine (Vetec Química Fina, Duque de Caxias, Brazil) and 50 μg/mL gentamycin (Novafarma, Anápolis, Brazil). Adherent cells were collected by treatment with 0.25% trypsin-EDTA solution (Gibco-BRL). All cell lines were cultured in flasks at 37 °C in 5% CO2 and sub-cultured every 3–4 days to maintain exponential growth. All cell lines were tested for mycoplasma using a Mycoplasma Stain Kit (Sigma-Aldrich, St. Louis, MO, USA) to confirm that the cells were free from contamination.
(§4) Cell viability was quantified using the Alamar Blue assay, according to Ahmed et al. [23]. Cells were placed in 96-well plates for all experiments (0.7 × 10^5 cells/mL for adherent cells or 0.3 × 10^6 cells/mL for suspended cells in 100 μL of medium). After 24 h, the alkaloids (in a range of eight different concentrations varying from 0.19 to 25 μg/mL) were dissolved in dimethyl sulfoxide (DMSO, Sigma-Aldrich Co.), and the solution was added to each well and incubated for 72 h. […] Negative controls received the vehicle that was used for diluting the alkaloids (0.5% DMSO). Four (for cell lines) or 24 h (for PBMCs) before the end of incubation, 20 μL of a stock solution (0.312 mg/mL) of the Alamar Blue (resazurin, Sigma-Aldrich Co.) was added to each well. The absorbance at 570 nm and 600 nm was measured using a SpectraMax 190 Microplate Reader (Molecular Devices, Sunnyvale, CA, USA), and the drug effect was quantified as the percentage of control absorbance.
Series [6] has as its system HepG2 cells. As to the kind of experiment: Acridine Orange/ethidium bromide staining, fluorescence microscopy, HepG2. It is filed as cell-based, human. Particulars: HepG2, 24 h, p < 0.05; for number of apoptotic cells (AO/EB): lanuginosine 10 and 20 μg/mL, (+)-xylopine 5 and 10 μg/mL. As to the method: as §1
Cells were pelleted and resuspended in saline (25 μL). Then, 1 μL of aqueous solution of AO/EB (100 μg/mL, Sigma-Aldrich Co.) was added, and the cell viability changes were observed under a fluorescence microscope (Olympus BX41). In this assay, AO permeates all cells and makes the nuclei appear green. EB is only taken up by cells when the cytoplasmic membrane integrity is lost and stains the nucleus red. EB also dominates over AO. Thus, live cells have a normal green nucleus; early apoptotic cells have a bright green nucleus with condensed or fragmented chromatin; late apoptotic cells display condensed and fragmented orange chromatin; cells that have died from direct necrosis have a structurally normal orange nucleus. Three hundred cells were counted per sample and classified as viable, apoptotic or necrotic.

In series [7] the test system is HL-60 (human promyelocytic leukemia). As to the kind of experiment: Alamar Blue cytotoxicity assay, HL-60. It is filed as cell-based. Particulars: for IC50: Homo sapiens, HL-60, Alamar Blue, 72 h incubation, read-out: IC50 HL60; for selectivity index (SI): SI = IC50[PBMC]/IC50[HL-60].
Experimental: as §3, §4
Series [8] deals with HepG2 cells. As to the kind of experiment: Trypan Blue dye exclusion, HepG2. It counts as cell-based, human. Particulars: HepG2, 24 h, lanuginosine 10 and 20 μg/mL, (+)-xylopine 5 and 10 μg/mL; for number of viable cells: p < 0.05. The procedure:
as §1

For series [9], the system named is peripheral blood mononuclear cells (PBMCs). As to the kind of experiment: Alamar Blue cytotoxicity assay, non-tumor PBMCs. It is filed as cell-based. Particulars: Homo sapiens, PBMC, 72 h incubation, ConA-stimulated PBMCs. As to the method: Heparinized blood was collected from 20- to 35-year-old, healthy non-smokers who had not taken any drugs for at least 15 days prior to sampling, and the peripheral blood mononuclear cells (PBMCs) were isolated using a Ficoll density gradient in a Ficoll-Paque Plus (GE Healthcare Bio-Sciences AB, Uppsala, Sweden). PBMCs were washed and resuspended at a concentration of 0.3 × 10^6 cells/mL in RPMI 1640 medium with 20% fetal bovine serum, 2 mM L-glutamine and 50 μg/mL gentamycin at 37 °C with 5% CO2. Concanavalin A (ConA, Sigma-Aldrich Co.) was used as a mitogen to trigger cell division in T-lymphocytes. ConA (10 μg/mL) was added at the beginning of culture, and the cells were treated with the test compounds after 24 h. Cell viability was examined using a trypan blue exclusion assay for all experiments. Over 90% of the cells were viable at the beginning of the culture. The Research Ethics Committee of the Oswaldo Cruz Foundation (Salvador, Bahia, Brazil) approved the experimental protocol (#031019/2013). All participants signed a written informed consent to participate in the study.

Series [10] relates to K562 (human chronic myelocytic leukemia). As to the kind of experiment: Alamar Blue cytotoxicity assay, K562. It is filed as cell-based. To be noted: 72 h incubation.
Source text: as §2

Details of series [11]: method as in PMID 22491683. Particulars: previously studied; cited from earlier work.
The next series is described as follows: in vitro. To be noted: mouse (B16-F10); human (HepG2, K562, HL-60).

Experimental for in vitro: as §3, §4

For the molecule `COc1ccc2c(c1)C[C@@H]1NCCc3cc4c(c-2c31)OCO4` [(+)-Xylopine, (+)-xylopine], in the series on HepG2 cells [1], the cell morphology entry is “morphology consistent with apoptosis, including chromatin condensation and fragmentation of the nuclei”. Also, the concentration for half-maximal inhibition (IC50) with B16-F10 (mouse melanoma) was 3.77 µg/mL; in the series with B16-F10 (mouse melanoma) (value in brackets), 12.7 µM; in series [3] it was 1.87 µg/mL; in series [3] (value in brackets), 6.31 µM; in series [5], under 4 µg/mL; in series [7], 1.87 µg/mL. The IC50 came out at 6.31 µM in series [7] (value in brackets); 4.08 µg/mL in series [9]; 13.8 µM in series [9] (value in brackets); 3.12 µg/mL in series [10]; 10.5 µM in [10] (value in brackets). The phosphatidylserine exposure entry in the series on HepG2 cells [2] is recorded as “significant increase in phosphatidylserine exposure”. In the series on HepG2 cells [4] (5 µg/mL), the “Cell Cycle Phases (%) S” value stood at 10.80 ± 1.50 %. Moreover, the “Cell Cycle Phases (%) G2/M” value was determined as 64.16 ± 2.56 % with HepG2 cells [4] (5 µg/mL) and 39.96 ± 9.59 % in the series with HepG2 cells [4] (10 µg/mL). The “Cell Cycle Phases (%) G1” value with HepG2 cells [4] (5 µg/mL) was 28.05 ± 3.15 %; in the series on HepG2 cells [4] (10 µg/mL) it was 20.43 ± 3.06 %. Besides, in the series on HepG2 cells [4] (5 and 10 μg/mL), the “effect on cell cycle distribution” value is on record as “total number of cells in the G2/M phase increased, indicating cell cycle arrest during this phase”. Further, the “internucleosomal DNA fragmentation (sub-G1)” value in the series with HepG2 cells [4] (5 and 10 μg/mL, p < 0.05) is given as “increase in the internucleosomal DNA fragmentation”. In addition, the “number of apoptotic cells (AO/EB)” value with HepG2 cells [6] is “increased number of apoptotic cells”. The “selectivity index (SI)” value in [7] was found to be 2.2. Also, in the series with HepG2 cells [8], the “number of non-viable cells” value was “without increasing the number of non-viable cells”. Further, the “number of viable cells” value with HepG2 cells [8] is recorded as “reduce the number of viable cells”.
In the case of `COc1ccc2c(c1)C(=O)c1nccc3cc4c(c-2c13)OCO4` [Lanuginosine, lanuginosine], in the series with HepG2 cells [1], the cell morphology entry was “morphology consistent with apoptosis, including chromatin condensation and fragmentation of the nuclei”. Moreover, the IC50 in the series on B16-F10 (mouse melanoma) is 8.46 µg/mL; in the series with B16-F10 (mouse melanoma) (value in brackets), 27.6 µM; in series [3], 3.89 µg/mL; in series [3] (value in brackets) it was 12.7 µM; in series [5], under 4 µg/mL; in series [7], 7.81 µg/mL. Also, the concentration for half-maximal inhibition (IC50) stood at 25.5 µM in series [7] (value in brackets); 24.5 µg/mL in series [9]; 80.1 µM in [9] (value in brackets); 6.61 µg/mL in series [10]; 21.6 µM in [10] (value in brackets). The phosphatidylserine exposure result in the series on HepG2 cells [2] is reported as “significant increase in phosphatidylserine exposure”. Further, in the series on HepG2 cells [6] (at the higher concentration), the “percentage of necrotic cells (AO/EB)” value is “significantly increased the percentage of necrotic cells”. For the same molecule, in the series with HepG2 cells [6], the “number of apoptotic cells (AO/EB)” value was “increased number of apoptotic cells”. The “selectivity index (SI)” value in series [7] turned out to be 3.1. In the series on HepG2 cells [8], the “number of non-viable cells” value is on record as “without increasing the number of non-viable cells”. The “number of viable cells” value in the series with HepG2 cells [8] is reported as “reduce the number of viable cells”.
On to `COc1cc2c(cc1OC)-c1c(OC)c(OC)cc3c1C(C2)NCC3` (single isomer, unassigned; (+)) [(+)-Norglaucine, (+)-norglaucine], for which the concentration for half-maximal inhibition (IC50) with B16-F10 (mouse melanoma) was 8.48 µg/mL; with B16-F10 (mouse melanoma) (value in brackets) it was 24.8 µM; in series [3], 3.78 µg/mL; in [3] (value in brackets), 11 µM; in series [5], under 4 µg/mL; in [7], 6.84 µg/mL. Further, the half-inhibitory concentration (IC50) in [7] (value in brackets) was determined as 20 µM; in series [9] it was 6.7 µg/mL; in series [9] (value in brackets), 19.6 µM; in series [10], 7.84 µg/mL; in [10] (value in brackets), 22.9 µM. For the same molecule, the pro-apoptotic effect result in series [11] was “no effect was found”. Besides, in [7], the “selectivity index (SI)” value came out at 1.0.
For `COc1cc2c(cc1OC)-c1c(OC)c(O)cc3c1C(C2)NCC3` (single isomer, unassigned; (+)) [(+)-Norpredicentrine, (+)-norpredicentrine], the IC50 (with B16-F10 (mouse melanoma); in series [3]; in series [7]; in series [9]; in series [10]) was over 25 µg/mL in each case. This molecule also yielded a half-maximal inhibitory concentration (IC50) at 72 h in the series “in vitro” of over 25 µg/mL.
With `COc1cccc2c1C(=O)c1c(O)c3c(c(O)c1C2=O)C[C@@](O)(C(=O)CO)C[C@@H]3O[C@H]1C[C@H](N)[C@H](O)[C@H](C)O1` [Doxorubicin, doxorubicin, reference compound], the IC50 amounted to 0.08 µg/mL in the series with B16-F10 (mouse melanoma); 0.15 µM in the series with B16-F10 (mouse melanoma) (value in brackets); 0.08 µg/mL in series [3]; 0.15 µM in [3] (value in brackets); 0.09 µg/mL in [7]; 2.47 µg/mL in series [9]. Besides, the IC50 in [9] (value in brackets) was found to be 4.54 µM; in series [10] it was 0.15 µg/mL; in series [10] (value in brackets), 0.28 µM. Also, in the series with HepG2 cells [2] (doxorubicin 1 μg/mL, positive control), the “apoptotic characteristics in the cells” value is “induced apoptotic characteristics”. The “Cell Cycle Phases (%) S” value in the series with HepG2 cells [4] (1 µg/mL) was 12.00 ± 1.43 %. For the same molecule, the “Cell Cycle Phases (%) G2/M” value in the series with HepG2 cells [4] (1 µg/mL) is recorded as 61.94 ± 5.52 %.
